These are literature values, as cited in article PMC2988205 (Medicinal Chemistry Research, 2009).

pEC50: −log10 of the molar value.

The term pEC50 denotes the EC50 on a negative log10 scale, so that one unit is a factor of ten.

The subject of this data set is β3-AR. The settings on record: read-out: β3 EC50; β3-AR partial agonist; ref Naylor et al., 1998.

For the compound `C[C@H](Cc1ccc(OCC(=O)O)cc1)NC[C@H](O)c1cccc(Cl)c1` [BRL-37344], the pEC50 was 6.35.
